A short description of data set [1]: Viscosity measurement of the synthesized compound. In kind it is physicochemical. The conditions noted are these: shear rate: 92 1/s. The source says:
The results of measuring the ^1H-NMR spectrum and viscosity of the resulting compound were as shown below.
Viscosity: 0.48 Pa·s (shear rate: 92 1/s)

Data set [2] is described as follows: Formation of gelatinous composition on mixing with physiological saline. In kind it is physicochemical. The conditions noted are these: 50% by weight or more of physiological saline, separated saline removed. How it is done:
An aqueous medium in the form of a 50% by weight or more of physiological saline was added to mono-O-(5,9,13-trimethyltetradeca-4-enoyl)glycerol followed by carrying out a mixing procedure and removing the separated physiological saline.
Mono-O-(5,9,13-trimethyltetradeca-4-enoyl)glycerol and a contrast agent in the form of Lipiodol were mixed at mixing ratios of 10:5, 70:30, 10:3, 80:20, 10:2, 90:10 and. 10:1. An aqueous medium in the form of 50% by weight or more of physiological saline was added to each mixture followed by carrying out a mixing procedure and removing the separated physiological saline to respectively obtain mixtures.

The nature of data set [3]: Liquid crystal structure analysis by small-angle X-ray scattering (SAXS). In kind it is physicochemical. The conditions noted are these: atmospheric pressure. How it is done:
The liquid crystal structure of the aforementioned gelatinous composition was analyzed by small-angle X-ray scattering (SAXS) using the NANO Viewer nanoscale X-ray structural evaluation system (Rigaku). As a result of measuring the aforementioned gelatinous composition packed into pinhole slits under atmospheric pressure, a graph of SAXS intensity distribution (FIG. 3(1)) and peak search results (FIG. 3(2)) were obtained.
The liquid crystal structures of the aforementioned gelatinous compositions were analyzed by small-angle X-ray scattering (SAXS) using the SmartLab high-luminance in-plane X-ray diffraction system (Rigaku). The aforementioned gelatinous composition packed into pinhole slits were measured under atmospheric pressure.
Liquid crystal structure of the aforementioned emulsion was analyzed by small-angle X-ray scattering (SAXS) using the NANO Viewer nanoscale X-ray structural evaluation system (Rigaku). As a result of introducing the emulsion into a capillary tube under atmospheric pressure and measuring with the system at reduced pressure (although the sample per se was at atmospheric pressure), a graph of SAXS intensity distribution (FIG. 5(1)) and peak search results (FIG. 5(2)) were obtained.
The aforementioned emulsion was measured by SAXS in the same manner as Example 4. […]

Data set [4] can be described thus: Stability of liquid crystal gelatinous composition in human serum. The data set is classed as in vitro ADME. How it is done:
Approximately 100 μL of mono-O-(5,9,13-trimethyltetradeca-4-enoyl)glycerol or approximately 100 μL each of mixed solutions of mono-O-(5,9,13-trimethyltetradeca-4-enoyl)glycerol and Lipiodol at a weight ratio of 10:1, 10:2 or 10:3 were respectively added to vials containing 2 mL of human serum (Human OTC Serum, Access Biologicals). After gently shaking each vial to cause the formation of a gelatinous composition, the vials were allowed to stand undisturbed in a water bath at 37° C. followed by observing immediately thereafter, 10 hours later and 24 hours later.
FIG. 13 depicts captured images indicating changes over time in samples consisting of approximately 100 μL of mono-O-(5,9,13-trimethyltetradeca-4-enoyl)glycerol.

From patent publication US20200282101A1, “BIODEGRADABLE TUMOR SEALANT” (MediGear International Corporation, priority 2015, published 2020) come the findings set out here.

`CC(=CCCC(=O)OCC(O)CO)CCCC(C)CCCC(C)C` (stereo not drawn) [Example 1, Mono-O-(5,9,13-trimethyltetradeca-4-enoyl)glycerol] came in with a Viscosity in data set [1] of 0.48 Pa·s. The “Appearance of composition after mixing with physiological saline” value in data set [2] is reported as “cloudy to colorless, clear gel”. Besides, in data set [3], the “Liquid crystal structure (SAXS)” value is given as “inverse hexagonal liquid crystal”. The “Change of human serum with passage of time” value in data set [4] (approx. 100 μL in 2 mL human serum, 37° C., up to 24 hours) is “gradually became cloudy”. For the same molecule, the “Change of gelatinous composition in distilled water instead of human serum” value in data set [4] (distilled water, within 24 hours) is reported as “no change in the gelatinous composition”. Further, the “Observation in human serum 10 hours after addition” value in data set [4] (human serum, 37° C., 10 hours) is on record as “Cloudiness can be seen to have progressed”. In addition, in data set [4] (human serum, 37° C., 24 hours), the “Observation in human serum 24 hours after addition” value is on record as “Cloudiness had progressed even further, although the gelatinous composition remained”. In data set [4] (human serum, 37° C., 24 hours after addition), the “Main eluted components by TLC analysis” value is “mono-O-(5,9,13-trimethyltetradeca-4-enoyl)glycerol and (5,9,13-trimethyl-4-tetradecanoic)carboxylate obtained as a result of hydrolysis”. Further, in data set [4] (human serum, 37° C., immediately after addition), the “Observation in human serum immediately after addition” value is “a gelatinous composition formed and the human serum remained clear”.
